Data from US20120289492A1, “METHODS OF TREATING MITOCHONDRIAL DISORDERS USING METALLOPORPHYRINS” (priority 2009, published 2012).

Assays:
[1] = tested on: forebrain of Sod2−/− mice; assay: Mitochondrial oxidative stress and bioenergetic indices in brain of Sod2−/− mice; format: in vivo
[2] = tested on: parietal cortex of Sod2−/− mice; assay: Histochemical analyses (H&E, Fluoro-Jade B) of Sod2−/− mouse brain; format: in vivo
[3] = tested on: kainate-induced epileptogenesis in rats; assay: Kainate-induced chronic epilepsy development (rat model of temporal lobe epilepsy); format: in vivo
Protocol: The rat model of temporal lobe epilepsy is initiated by a single injection of a chemoconvulasant agent which results in spontaneous epileptic seizure arise several days to weeks thereafter. Groups of rats administered vehicle, kainate (a chemoconvulsant used to initiate injury), kainate+AEOL11207 and AEOL11207 were monitored 6 weeks for behavioral seizures and indices of oxidative stress (GSH/GSSG, CoASH/CoASSG). AEOL11207 was administered at an arbitrary dose of 5 mg/kg, s.c. daily beginning 6 hr after injection of kainate (11 mg/kg). All of the rats in both groups experienced SE after kainate injection, and there was no difference in any of the characteristics of SE between the groups. […] The time to develop chronic epilepsy (latency to chronic epilepsy), spontaneous seizure frequency, severity and duration was determined.
In another exemplary experiment, pharmacological removal of ROS was examined for its inhibition on kainate-induced epileptogenesis. A pilot was performed in which groups of rats administered vehicle (n=4), kainate (n=6), kainate+AEOL11207(n=6) and AEOL11207 (n=4) were monitored 6 weeks for behavioral seizures (Table 1) and indices of oxidative stress (GSH/GSSG, CoASH/CoASSG) (FIG. 6).
AEOL11207 was administered at a dose of 5 mg/kg, s.c. daily beginning 6 hr after injection of kainate ([…]). All of the rats in both groups experienced SE after kainate injection, and there was no difference in any of the characteristics of SE between the groups. […] The time to develop chronic epilepsy (latency to chronic epilepsy), spontaneous seizure frequency, severity and duration was determined as previously described. […] None of the rats in the control or AEOL11207 alone groups developed seizures. […] FIG. 6 and Table 1 illustrate the effect of AEOL11207 on kainate-induced chronic epilepsy development (n=6/group) and oxidative stress (n=4-6 per group).

[4] = tested on: mitochondrial SOD activity; assay: SOD2 activity assay in forebrain mitochondrial fractions; format: in vivo; conditions: treated Sod2−/− mice vs Sod2+/+ mice (1.56±0.17 units/mg protein)
Wild-type mice = assay: Tolerability in wild-type mice; format: in vivo; conditions: 5 mg/kg daily, up to 20 days of treatment
mouse lymphoma = assay: Mouse lymphoma test (mutagenicity); format: cell-based
Description: Safety profile: A prototypical metalloporphyrin (AEOL10150; FIG. 1) has completed phase 1 trials in amyotrophic lateral sclerosis patients. Extensive safety studies of this compound have been completed in mice, monkeys and rats. […] Safety studies for the structurally related compound, AEOL11207 need to be completed once its efficacy is established in animal studies.

[5] = mouse, in vivo, po, 15 mg/kg
Protocol: In another exemplary method, oral administration of AEOL11207 was examined for efficiently to penetrate the blood-brain barrier (BBB) and brain mitochondria. To determine if AEOL11207 penetrates the BBB, preliminary studies were conducted in mice following injection of AEOL 11207. Mice were given a single dose of the compound (15 mg/kg, p.o. AEOL 11207) or vehicle (control). At various times after injection, mice were perfused and brains (cortex) and plasma were extracted with methanol and samples analyzed by an HPLC method as described previously. […] FIGS. 3A and 3B illustrate plasma and brain concentrations of AEOL11207 following s.c. or p.o. administration. […]
FIGS. 3A-3B illustrate exemplary concentrations of AEOL11207 in the plasma (3A) and brains (3B) of the C57BL/6 mice at different times points after a single dose of AEOL11207 (15 mg/kg) administered by the s.c or p.o. route. […] FIG. 3C illustrates an exemplary chromatogram of AEOL 11207 levels measured by HPLC with UV detection at 450 nm in mitochondrial fractions of mouse forebrain 24 hr after AEOL11207 15 mg/kg s.c. as previously described. Recovery of AEOL11207 from mitochondrial samples was determined to be ˜98%. […]
Determination of metalloporphyrin levels AEOL11207 was measured by HPLC-UV following previously described methods (Liang, et al. (2007) J Neurosci 27, 4326-33).

[6] = forebrain mitochondrial fraction of Sod2−/− mice
[7] = kainate rats, compared to controls
[8] = the 2 rats of the kainate+AEOL11207 group that developed epilepsy

Q: For `COC(=O)c1c2nc(c(C(F)(F)F)c3ccc([n-]3)c(C(=O)OC)c3nc(c(C(F)(F)F)c4ccc1[n-]4)C=C3)C=C2.[Cl-].[Mn+3]` [AEOL11207], which depletion of ascorbate ([1]; brains of Sod2−/− mice) is on record?
A: significantly attenuated

Q: And the depletion of glutathione ([1]; brains of Sod2−/− mice)?
A: significantly attenuated

Q: What about the decrease in cysteine [1, 6] of the same compound?
A: significantly attenuated

Q: And the decrease in methionine [1, 6]?
A: significantly attenuated

Q: And the “increased CoASSG” value ([1]; forebrain of Sod2−/− mice, 15-16 days old)?
A: significantly attenuated

Q: What about the “decrease in glutamate transporter GLT-1 expression” value ([1]; hippocampus of Sod2−/− mice, Western blot) of the same compound?
A: significantly attenuated

Q: And the “Histopathological damage including vacuole size and number” value ([2]; H&E staining, Sod2−/− mice P15-16)?
A: decreased

Q: What about the “neuronal degeneration (Fluoro-Jade B staining)” value ([2]; compared to vehicle treatment) of the same compound?
A: Significant protection

Q: What about the “attenuation of Fluoro-Jade B relative fluorescence density” value ([2]; parietal cortex of Sod2−/− mice, compared to vehicle treatment) of the same compound?
A: ~50%

Q: What about the “rats that developed seizures” value ([3]; AEOL11207 alone group, no kainate) of the same compound?
A: None

Q: What about the “rats that developed chronic epilepsy during 6 weeks” value ([3]; in comparison with two-thirds in the kainate group) of the same compound?
A: one-third

Q: And the “Duration of seizures (sec.)” value ([3]; kainate + 5 mg/kg s.c. daily, kainate alone 33.3 ± 1.9)?
A: 28.3 ± 2.2*p < 0.05 sec.

Q: And the CoASH/CoASSG ratio [3, 7]?
A: significantly improved

Q: And the GSH/GSSG ratio [3, 7]?
A: significantly improved

Q: And the “decrease of seizure duration” value [3, 8]?
A: ~15%

Q: What about the “number of seizures per animal” value [3, 8] of the same compound?
A: no changes

Q: And the “Cyanide insensitive SOD activity compared to Sod2+/+ mice” value [4]?
A: ~40%

Q: And the ill effects (Wild-type mice)?
A: no ill effects

Q: What about the mortality (Wild-type mice) of the same compound?
A: no mortality

Q: And the “mutagenicity, mouse lymphoma test” value (mouse lymphoma)?
A: negative

Q: And the “estimated concentration in the brain” value [5]?
A: within the protective range
